Data reported in patent US20250268909A1, “Combination Therapy” (US Oncology Corporate, Inc., priority 2022, published 2025).
“And” between values parts separate entries of the source, which are not always exact repeats. Equal entries are not always repeated.

Test system: TN metastatic or locally recurrent breast cancer
Assay: randomized phase II trial, TN cohort, efficacy
Format: in vivo, human
Text: Other information about this phase II clinical trial is included in O'Shaughnessy et al., JAMA Network Open. 2021, 4(4):e214103, the entire contents of which are incorporated herein by reference.
Eligible patients were postmenopausal women aged 18 years or older with metastatic or unresectable locally recurrent breast cancer that was histologically confirmed as ER+/HER2− invasive breast cancer (any progesterone receptor status), with Ki67 greater than 15% in primary or metastatic tissue, or grade 3 TNBC, to enrich for more highly proliferative cancers that may be more dependent on AURKA. HER2− negative was defined as immunohistochemistry (IHC) status of 0, 1+, or 2+(if IHC was 2+, a negative FISH test was required with a ratio <2.0 and an average HER2 copy number <4.0 signals/cell). ER-negative and progesterone receptor (PR)-negative status was defined as ER and PR less than 1% nuclei positive by IHC. Patients may have been treated with 0 or 1 chemotherapy regimen for advanced disease and with neo/adjuvant taxane therapy at least 12 months before the development of metastatic disease. An Eastern Cooperative Group (ECOG) performance status of 0 or 1 and adequate hematologic, cardiac, renal, and liver function were required. Eligible patients were required to have measurable disease by Response Evaluation Criteria in Solid Tumors (RECIST v 1.1) criteria, or lytic or mixed blastic/lytic bone-only disease. Patients with untreated or progressing brain metastases, or those who required corticosteroids, were not eligible.
Administration of 5 μg/kg filgrastim was allowed for treatment-limiting neutropenia, and loperamide was used to treat diarrhea but was not allowed prophylactically in cycle 1.
Computed tomography (CT) of chest, abdomen, and pelvis was performed at screening. Chest and abdominal CT imaging were then performed every 8 weeks after initiation of treatment for the first 32 weeks of treatment and every 12 weeks thereafter for the duration of the treatment period, and at End of Treatment (EoT). Pelvic CT imaging was obtained at subsequent tumor assessments only if pelvic metastases were identified at screening. Bone scans were obtained on all patients at screening and then every 12 weeks in patients with bone metastases on their baseline bone scan.
Patients were stratified as ER-positive, HER2-negative cohort and TN cohort based on results of ER, progesterone receptor, and HER2 measurements on their metastatic tissue, or, if not available, on their primary breast cancer tissue.
The TN and ER-positive, HER2-negative cohorts were analyzed independently, and no change to the statistical plan was made based on the underaccrual to the TN group.
Patients' baseline demographic and disease characteristics were summarized for the intent-to-treat population, which included all patients registered on study and were described by means with SDs and medians with ranges for continuous variables and by numbers with percentages for categorical variables. PFS was defined as the time from date of registration in the study to the date of first progression of disease or the date of death. Patients whose disease had not progressed were censored at the last contact date. OS was measured from the date of registration to the date of death. PFS and OS were estimated using Kaplan-Meier methods with 95% CIs in the intent-to-treat population and compared by log-rank tests.
The protocol-defined evaluable population included all eligible patients who received at least 1 dose of study drug. CBR and ORR were examined using univariate and multivariate approaches with Fisher exact tests and the logistic regression models. The 95% CIs were estimated for CBR and ORR assuming binomial distribution. A χ^2 test was used to estimate the differences between CBRs and ORRs in the two arms.

[1] = TN cohort, evaluable patients (P+A n=16, P n=12)

SMILES: CC(=O)O[C@H]1C(=O)[C@@]2(C)[C@H]([C@H](OC(=O)c3ccccc3)[C@]3(O)C[C@H](OC(=O)[C@H](O)[C@@H](NC(=O)c4ccccc4)c4ccccc4)C(C)=C1C3(C)C)[C@]1(OC(C)=O)CO[C@@H]1C[C@@H]2O [Paclitaxel, (2α,4α,5β,7β,10β,13α)-4,10-Bis(acetyloxy)-13-{[(2R,3S)-3-(benzoylamino)-2-hydroxy-3-phenylpropanoyl]oxy}-1,7-dihydroxy-9-oxo-5,20-epoxytax-11-en-2-yl benzoate]
- median (IQR) PFS (35 patients with TN MBC, intent-to-treat, listed as paclitaxel alone): 5.7 (2.9-8.2) months and 5.7 months
- Best Overall Response: CR [1]: 0%
- Best Overall Response: PD [1]: 2 (16.7) %
- Best Overall Response: PR [1]: 5 (41.7) %
- Best Overall Response: SD [1]: 5 (41.7) %
- CBR (CR + PR + SD ≥ 6 months) [1]: 7 (58.3) %
- ORR (CR + PR) [1]: 5 (41.7) %
- median (IQR) OS (median follow-up 13.7 months): 12.7 (6.8-23.5) months
